The source of these data is US20210145827A1, “ANTIBIOTIC GEL FORMULATION AND METHODS OF PREPARING THE ANTIBIOTIC GEL FORMULATION” (Indiana University Research and Technology Corporation, priority 2015, published 2021).

Molecules are shown by their SMILES.

Data set [1] concerns three-week old E. faecalis biofilm. Put plainly: biofilm disruption assay on infected dentin samples (Example 2). The class given is cell-based, E. faecalis (ATCC 29212). To be noted: immersion 5 minutes. As to the method: Unidentified intact human teeth were collected, stored in 0.1% thymol solution at 4° C., and used within 6 months after obtaining local Institutional Review Board approval (IRB #1409251353). A standardized radicular dentin sample (4×4×1 mm^3) was obtained from each root using a slow diamond saw (IsoMet, Buehler, Lake Bluff, Ill.) under continuous distilled water irrigation. The pulpal side of each specimen was wet-finished with silicon carbide abrasive papers (500-2400 grit, Struers, Cleveland, Ohio). The polished samples were then sonicated in deionized water for 3 minutes, washed with sterile water, wrapped individually with moist cotton pellets, placed in Whirl-pak bags (Sigma-Aldrich, St Louis, Mo.), gas sterilized with ethylene oxide, and stored at 4° C. until used. E. faecalis (ATCC 29212) was grown initially on anaerobic blood agar plates (CDC, BioMerieux, Durham, N.C.). Colonies of E. faecalis were then suspended in brain-heart infusion (BHI) broth supplemented with 5 grams yeast extract/L (BHI-YE) and incubated for 24 hours at 37° C. with 5% CO2. Dentin samples were placed individually in separate wells of a 96-sterile well plate (Fisherbrand, Fischer Scientific) with the pulpal side facing upwards. […] The CFUs/mL were quantified using an automated colony counter (Synbiosis, Inc., Frederick, Md.). Summary statistics were calculated for the log-transformed data from each group. […]

For data set [2], the system named is stem cells from apical papillae and dental pulp stem cells. To be noted: 2% CHX; in vitro studies; cited from earlier work.

In the case of `OCl` [NaOCl, sodium hypochlorite], the “antibiofilm effect (log CFU/mL)” value in data set [1] (1.5% NaOCl) is “complete eradication”. For the compound `N=C(NCCCCCCNC(=N)NC(=N)Nc1ccc(Cl)cc1)NC(=N)Nc1ccc(Cl)cc1` [CHX], the “antibiofilm effect (log CFU/mL)” value in data set [1] (2% CHX, versus control groups, not complete eradication) is on record as “significant reduction in E. faecalis biofilm”. The “effect on survival and attachment of stem cells from apical and dental pulp” value in data set [2] was “highly unfavorable effects”.
